For this data set, the system named is rodent carcinogenicity bioassays, tumor incidence. Briefly: CCRIS carcinogenicity studies. The gist of the method:
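Archive of carcinogenicity, mutagenicity, tumor promotion and tumor inhibition results drawn from journals, NCI reports and other sources, expert-reviewed; covers 1985-2011 and is no longer updated.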

Calls of active or inactive are those of the source. How the calls were made is not given here.

As to `CN(N=O)c1ccccc1`, the carcinogen call (Species: HAMSTER, Strain/Sex: SYRIAN/FEMALE, Route: GAVAGE, Dose: 0, 5 MG/KG 1/WK FOR 50 WK (TOTAL DOSE: 0; 1.8 MMOL) (STUDY DURATION: LIFETIME), Dose: 0, 5 MG/KG 1/WK FOR 50 WK (TOTAL DOSE: 0; 1.8 MMOL) (STUDY DURATION: LIFETIME), Tumor Site: Type of Lesion: LIVER: CHOLANGIOMA) is “active; positive”; the carcinogen call (Species: MOUSE, Strain/Sex: SWISS/MALE,FEMALE, Route: ORAL, Dose: 0.070 G/L IN DRINKING WATER FOR 28 WK, Tumor Site: Type of Lesion: LUNG: ADENOMA) was “active; positive”; the carcinogen call (Species: RAT, Strain/Sex: ALBINO/MALE,FEMALE, Route: ORAL, Dose: 2.0 MG IN 10 ML DRINKING WATER (AVE) 5/WK FOR 52 WK, Tumor Site: Type of Lesion: ESOPHAGUS: PAPILLOMA, SQUAMOUS CELL CARCINOMA, FORESTOMACH: PAPILLOMA, SQUAMOUS CELL CARCINOMA, MOUTH: PAPILLOMA, SQUAMO, Tumor Site: Type of Lesion: ESOPHAGUS: PAPILLOMA, SQUAMOUS CELL CARCINOMA, FORESTOMACH: PAPILLOMA, SQUAMOUS CELL CARCINOMA, MOUTH: PAPILLOMA, SQUAMO) is “active; positive”; the carcinogen call (Species: RAT, Strain/Sex: STRAIN-BD, Route: ORAL, Dose: 14 MG/KG/D IN DIET FOR 250 D (AVE TOTAL DOSE: 3.4 G/KG), Tumor Site: Type of Lesion: ESOPHAGUS: SQUAMOUS CELL CARCINOMA) is “active; positive”; the carcinogen call (Species: RAT, Strain/Sex: STRAIN-CB/MALE,FEMALE, Route: ORAL, Dose: 5 MG AS 0.2% FOR 7 MO THEN 2.5 MG AS 0.1% IN DRINKING WATER 1/D, 6/WK, Tumor Site: Type of Lesion: ESOPHAGUS: BENIGN TUMOR OR MALIGNANT TUMOR) is “active; positive”.

Regarding `c1ccc2c(c1)ccc1[nH]c3ccc4ccccc4c3c12`, the carcinogen call was “active; positive” (Species: HAMSTER, Route: INTRATRACHEAL, Tumor Site: Type of Lesion: LUNG); “active; positive” (Species: MOUSE, Route: DERMAL, Tumor Site: Type of Lesion: INTEGUMENTARY SYSTEM (SKIN), LIVER); “active; positive” (Species: MOUSE, Route: INTRAVENOUS, Tumor Site: Type of Lesion: LUNG); “active; positive” (Species: MOUSE, Route: ORAL, Tumor Site: Type of Lesion: FORESTOMACH, LIVER, LUNG, Tumor Site: Type of Lesion: FORESTOMACH, LIVER, LUNG); “active; positive” (Species: MOUSE, Route: SUBCUTANEOUS, Tumor Site: Type of Lesion: INJECTION SITE, LUNG); “active; positive” (Species: MOUSE, Strain/Sex: HSD:ICR(BR)/FEMALE, Route: DERMAL, Dose: 0, 50 NMOL IN 50 µL ACETONE 2/WK FOR 99 WK (STUDY DURATION: 99 WK), Tumor Site: Type of Lesion: SKIN: TUMOR, LIVER: TUMOR). The carcinogen call (Species: MOUSE, Strain/Sex: STRAIN-A/MALE, Route: INTRAPERITONEAL, Dose: 0, 5, 10, 20, 40 MG/KG BW IN 0.2 ML TRICAPRYLIN ONCE (STUDY DURATION: 8 MO), Dose: 0, 5, 10, 20, 40 MG/KG BW IN 0.2 ML TRICAPRYLIN ONCE (STUDY DURATION: 8 MO), Tumor Site: Type of Lesion: LUNG: ADENOMA) was “active; positive” and the carcinogen call (Species: Mouse, Strain/Sex: XVIInc/Z homozygous/Female (50 or 162/Group), Route: Subcutaneous, Dose: 3 x 0.3 mg (162 animals) or 34 x 0.05 mg (50 animals) dissolved in olive oil, Tumor Site: Type of Lesion: Liver: Hepatoma (100%), Sarcoma (70%)) was “active; positive (historical controls only; reported incidence of liver tumors <2% at 2”.

Turning to `C1COCCO1`, the carcinogen call by setting is: (Species: MOUSE, Strain/Sex: B6C3F1/FEMALE, Route: ORAL, Dose: 0, 0.5, 1.0% (V/V) IN DRINKING WATER, Dose: 0, 0.5, 1.0% (V/V) IN DRINKING WATER, Tumor Site: Type of Lesion: LIVER: HEPATOCELLULAR CARCINOMA OR ADENOMA) “active; positive”; (Species: MOUSE, Strain/Sex: B6C3F1/MALE, Route: ORAL, Dose: 0, 0.5, 1.0% (V/V) IN DRINKING WATER, Dose: 0, 0.5, 1.0% (V/V) IN DRINKING WATER, Tumor Site: Type of Lesion: LIVER: HEPATOCELLULAR CARCINOMA OR ADENOMA) “active; positive”; (Species: MOUSE, Strain/Sex: BDF1/FEMALE, Route: ORAL, Dose: 0, 500, 2000, 8000 PPM IN DRINKING WATER FOR 104 WK (STUDY DURATION: 105 WK), Dose: 0, 500, 2000, 8000 PPM IN DRINKING WATER FOR 104 WK (STUDY DURATION: 105 WK), Tumor Site: Type of Lesion: LIVER: HEPATOCELLULAR ADENOMA, HEPATOCELLULAR CARCINOMA) “active; positive”; (Species: MOUSE, Strain/Sex: BDF1/MALE, Route: ORAL, Dose: 0, 500, 2000, 8000 PPM IN DRINKING WATER FOR 104 WK (STUDY DURATION: 105 WK), Dose: 0, 500, 2000, 8000 PPM IN DRINKING WATER FOR 104 WK (STUDY DURATION: 105 WK), Tumor Site: Type of Lesion: LIVER: HEPATOCELLULAR ADENOMA, HEPATOCELLULAR CARCINOMA) “active; positive”; (Species: RAT, Strain/Sex: F344/FEMALE, Route: ORAL, Dose: 0, 200, 1000, 5000 PPM IN DRINKING WATER FOR 104 WK (STUDY DURATION: 105 WK), Dose: 0, 200, 1000, 5000 PPM IN DRINKING WATER FOR 104 WK (STUDY DURATION: 105 WK), Tumor Site: Type of Lesion: NASAL CAVITY: TUMOR, LIVER: HEPATOCELLULAR ADENOMA, HEPATOCELLULAR CARCINOMA, MAMMARY GLAND: TUMOR, Tumor Site: Type of Lesion: NASAL CAVITY: TUMOR, LIVER: HEPATOCELLULAR ADENOMA, HEPATOCELLULAR CARCINOMA, MAMMARY GLAND: TUMOR) “active; positive”; (Species: RAT, Strain/Sex: F344/MALE, Route: ORAL, Dose: 0, 200, 1000, 5000 PPM IN DRINKING WATER FOR 104 WK (STUDY DURATION: 105 WK), Dose: 0, 200, 1000, 5000 PPM IN DRINKING WATER FOR 104 WK (STUDY DURATION: 105 WK), Tumor Site: Type of Lesion: NASAL CAVITY: TUMOR, LIVER: HEPATOCELLULAR ADENOMA, HEPATOCELLULAR CARCINOMA, PERITONEUM: MESOTHELIOMA, SUBCUTIS: FIBROM, Tumor Site: Type of Lesion: NASAL CAVITY: TUMOR, LIVER: HEPATOCELLULAR ADENOMA, HEPATOCELLULAR CARCINOMA, PERITONEUM: MESOTHELIOMA, SUBCUTIS: FIBROM) “active; positive”. Also, the carcinogen call by setting is: (Species: RAT, Strain/Sex: OSBORNE-MENDEL/FEMALE, Route: ORAL, Dose: 0, 0.5, 1.0% (V/V) IN DRINKING WATER, Dose: 0, 0.5, 1.0% (V/V) IN DRINKING WATER, Tumor Site: Type of Lesion: NASAL TURBINATES: SQUAMOUS CELL CARCINOMA, LIVER: HEPATOCELLULAR ADENOMA) “active; positive”; (Species: RAT, Strain/Sex: OSBORNE-MENDEL/MALE, Route: ORAL, Dose: 0, 0.5, 1.0% (V/V) IN DRINKING WATER, Dose: 0, 0.5, 1.0% (V/V) IN DRINKING WATER, Tumor Site: Type of Lesion: NASAL TURBINATES: SQUAMOUS CELL CARCINOMA) “active; positive”; (Species: RAT, Strain/Sex: SHERMAN/MALE,FEMALE, Route: ORAL, Dose: 0.01, 0.1, 1.0% IN DRINKING WATER FOR UP TO 716 D, Dose: 0.01, 0.1, 1.0% IN DRINKING WATER FOR UP TO 716 D, Tumor Site: Type of Lesion: LIVER: HEPATOCELLULAR CARCINOMA, CHOLANGIOMA) “active; positive”; (Species: RAT, Strain/Sex: SPRAGUE-DAWLEY/MALE, Route: ORAL, Dose: 0.75, 1.0, 1.4, 1.8% IN DRINKING WATER FOR 13 MO, Dose: 0.75, 1.0, 1.4, 1.8% IN DRINKING WATER FOR 13 MO, Tumor Site: Type of Lesion: NASAL CAVITY: SQUAMOUS CELL CARCINOMA, ADENOCARCINOMA, LIVER: HEPATOMA, HEPATOCELLULAR CARCINOMA) “active; positive”; (Species: RAT, Strain/Sex: WISTAR/MALE, Route: ORAL, Dose: 1% IN DRINKING WATER FOR 63 WK, Tumor Site: Type of Lesion: LIVER: NEOPLASTIC NODULE, HEPATOCELLULAR CARCINOMA) “active; positive”.

Consider `C=COC(N)=O`, for which the carcinogen call (Species: MOUSE, Strain/Sex: B6C3F1/MALE, Route: INTRAPERITONEAL, Dose: 0, 2.5 UG/G BW IN 10 µL TRIOCTANOIN ONCE (STUDY DURATION: 9 MO), Tumor Site: Type of Lesion: LIVER: HEPATOMA) was “active; positive”; the carcinogen call (Species: MOUSE, Strain/Sex: CD-1/FEMALE, Route: DERMAL, Dose: 0, 11.5 UMOL IN WEEKS 1 AND 2 THEN 5.7 UMOL IN WEEKS 3 AND 4 FOLLOWED BY 3.8 UMOL/WK FOR 28 WK (STUDY DURATION: 42 WK), Tumor Site: Type of Lesion: SKIN: PAPILLOMA, CARCINOMA) was “active; positive”; the carcinogen call (Species: MOUSE, Strain/Sex: STRAIN-A/FEMALE, Route: INTRAPERITONEAL, Dose: 0, 34, 68 NMOL/G BW IN 5 µL TRIOCTANOIN ONCE (STUDY DURATION: 6 MO), Dose: 0, 34, 68 NMOL/G BW IN 5 µL TRIOCTANOIN ONCE (STUDY DURATION: 6 MO), Tumor Site: Type of Lesion: LUNG: ADENOMA) was “active; positive”; the carcinogen call (Species: RAT, Strain/Sex: SPRAGUE-DAWLEY/FEMALE, Route: INTRAMUSCULAR, Dose: 0, 1.15, 2.3 UMOL IN 0.25 ML TRIOCTANOIN 1/WK FOR 10 WK (STUDY DURATION: 18 MO), Dose: 0, 1.15, 2.3 UMOL IN 0.25 ML TRIOCTANOIN 1/WK FOR 10 WK (STUDY DURATION: 18 MO)) was “inactive; negative”.
